We go through 55 molecules from patent US7566718B2, “Amine-linked pyridyl and phenyl substituted piperazine-piperidines with CXCR3 antagonist activity” (Schering Corporation, priority 2005, dated 2009).

For the test, the target named is T1, human CXCR3 (N-delta 4) (Homo sapiens, UniProt P49682).
T1 construct: CD8 leader (N); Flag tag; expressed in transfected cells; membrane preparation
T1 sequence (P49682 5-368 limits assumed): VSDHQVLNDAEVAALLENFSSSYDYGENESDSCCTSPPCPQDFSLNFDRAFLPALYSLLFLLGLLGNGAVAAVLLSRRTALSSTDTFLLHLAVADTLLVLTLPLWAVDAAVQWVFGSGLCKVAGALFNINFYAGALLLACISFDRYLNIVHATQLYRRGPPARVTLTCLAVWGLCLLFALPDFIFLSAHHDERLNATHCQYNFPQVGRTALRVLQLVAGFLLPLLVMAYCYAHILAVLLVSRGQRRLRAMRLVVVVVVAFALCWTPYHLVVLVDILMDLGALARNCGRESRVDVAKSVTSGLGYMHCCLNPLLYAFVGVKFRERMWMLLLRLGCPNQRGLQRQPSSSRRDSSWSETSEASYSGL
Kind of test: Human CXCR3 (N-delta 4) scintillation proximity assay (SPA), [125I] IP-10 binding to Ba/F3-hCXCR3 membranes. The conditions noted are these: IC50 rating; [125I] IP-10 displacement, human CXCR3; read-out: IC50. The method, boiled down: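 Membranes from Ba/F3 cells expressing Flag-tagged hCXCR3 (N-delta 4), 2 μg/point, precoupled to WGA SPA beads. Binding of 25 pM [125I] IP-10 measured with titrated compounds, 3 hr at room temperature, in HEPES buffer with CaCl2, MgCl2, NaCl and 1.0% BSA; bound tracer read by scintillation counting.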
Take `CC[C@H]1CN(c2ncc(N(S(C)(=O)=O)S(C)(=O)=O)cc2Cl)CCN1C1CCN(Cc2ccc(Cl)cc2F)CC1` [Compound 61]: the IC50 was above 100 nM.

For the molecule `CC[C@H]1CN(c2cc(N)c([N+](=O)[O-])cc2Cl)CCN1C1CCN(Cc2ccc(Cl)cc2F)CC1` [Compound 220], the IC50 is above 100 nM.

Regarding `CC[C@H]1CN(c2ncc(N)cc2Cl)CCN1C1CCN(Cc2ccc(Cl)cc2F)CC1` [Compound 206], the IC50 was 25 to 100 nM.

`CC[C@H]1CN(c2ncc(Nc3c(NC4CC4)c(=O)c3=O)cc2Cl)CCN1C1CCN([C@@H](C(=O)NC)c2ccc(Cl)cc2)CC1` [Compound 101]: the IC50 is below 25 nM.

Regarding `CCC(C)CN1CCC(N2C[C@H](C)N(c3ncc(Nc4c(NCC(F)(F)F)c(=O)c4=O)cc3Cl)C[C@H]2C)CC1` (stereo partly shown) [Compound 170], the IC50 is above 100 nM.

On to `CC(C)C1CCC(N2CCC(N3C[C@H](C)N(c4ncc(Nc5c(NCC(F)(F)F)c(=O)c5=O)cc4Cl)C[C@H]3C)CC2)CC1` (stereo partly shown) [Compound 127], for which the IC50 is above 100 nM.

In the case of `CC[C@H]1CN(c2ncc(Nc3c(NC4CCC4)c(=O)c3=O)cc2Cl)CCN1C1CCN(Cc2ccc(Cl)cc2F)CC1` [Compound 87], the 50% inhibitory concentration (IC50) was below 25 nM.

As for `C[C@@H]1CN(c2ncc(Nc3c(NCC(F)(F)F)c(=O)c3=O)cc2Cl)[C@@H](C)CN1C1CCN(Cc2ccc(Cl)cc2F)CC1` [Compound 89], the IC50 was below 25 nM.

Regarding `C[C@H]1CN(c2ncc(NC(=O)C3CCCCC3)cc2Cl)CCN1C1CCN(Cc2ccc(Cl)cc2)CC1` [Compound 194], the IC50 is above 100 nM.

As for `CC[C@H]1CN(c2ncc(Nc3c(N4CCC4)c(=O)c3=O)cc2Cl)CCN1C1CCN(Cc2ccc(Cl)cc2F)CC1` [Compound 93], the IC50 is below 25 nM.

Consider `C[C@H]1CN(c2ncc(NS(C)(=O)=O)cc2Cl)CCN1C1CCN(Cc2ccc(C(F)(F)F)cc2F)CC1` [Compound 64], for which the concentration for half-maximal inhibition (IC50) is above 100 nM.

As for `CC[C@H]1CN(c2ncc(NC3=NS(=O)(=O)N=C3NC3CC3)cc2Cl)CCN1C1CCN(Cc2ccc(C(F)(F)F)cc2)CC1` [Compound 245], the concentration for half-maximal inhibition (IC50) is below 25 nM.

Consider `CC[C@H]1CN(c2ncc(NS(C)(=O)=O)cc2Cl)CCN1C1CCN(Cc2ccc(Cl)s2)CC1` [Compound 26], for which the IC50 lay within 25 to 100 nM.

As for `COc1ccc(CN2CCC(N3C[C@H](C)N(c4ncc(Nc5c(NCC(F)(F)F)c(=O)c5=O)cc4Cl)C[C@H]3C)CC2)cc1` [Compound 117], the half-maximal inhibitory concentration (IC50) was above 100 nM.

Consider `C[C@@H]1CN(c2ncc(NC3C(=O)C(=O)C3NCC(F)(F)F)cc2Cl)[C@@H](C)CN1C1CCN(Cc2ccc3ccccc3c2)CC1` (stereo partly shown) [Compound 122], for which the half-inhibitory concentration (IC50) is above 100 nM.

For the molecule `C[C@@H]1CN(c2ncc(Nc3c(NCC(F)(F)F)c(=O)c3=O)cc2Cl)[C@@H](C)CN1C1CCN(Cc2cc(Cl)cc(Cl)c2)CC1` [Compound 159], the IC50 is above 100 nM.

`C[C@H]1CN(c2ncc(NN)cc2Cl)CCN1C1CCN(Cc2ccc(Cl)cc2F)CC1` [Compound 231]: the IC50 is above 100 nM.

Take `CC[C@H]1CN(c2ncc(NS(C)(=O)=O)cc2Cl)CCN1C1CCN(Cc2cc3ccccc3o2)CC1` [Compound 48]: the concentration for half-maximal inhibition (IC50) was above 100 nM.

Turning to `CC[C@H]1CN(c2ncc(NS(C)(=O)=O)cc2Cl)CCN1C1CCN(C(=O)c2ccc(Br)s2)CC1` [Compound 69], the IC50 was above 100 nM.

As to `CC[C@H]1CN(c2ncc(NC3=NS(=O)(=O)N=C3N(C)C)cc2Cl)CCN1C1CCN(Cc2ccc(Cl)cc2F)CC1` [Compound 237], the IC50 was below 25 nM.

Regarding `C[C@@H]1CN(c2ncc(Nc3c(NCC(F)(F)F)c(=O)c3=O)cc2Cl)[C@@H](C)CN1C1CCN(Cc2ccc(Oc3ccccc3)cc2)CC1` [Compound 161], the IC50 was above 100 nM.

As for `CC[C@H]1CN(c2ncc(NS(C)(=O)=O)cc2Cl)CCN1C1CCN(Cc2ccc(N(C)C)cc2)CC1` [Compound 45], the IC50 is above 100 nM.

Turning to `CC[C@H]1CN(c2ncc([N+](=O)[O-])cc2Cl)CCN1C1CCN([C@H](CO)c2ccc(Cl)cc2)CC1` [Compound 201], the half-inhibitory concentration (IC50) was below 25 nM.

As for `CC[C@H]1CN(c2ncc(NC3=NS(=O)(=O)N=C3NC(CO)C(N)=O)cc2Cl)CCN1C1CCN(Cc2ccc(Cl)cc2F)CC1` (stereo partly shown) [Compound 276], the half-inhibitory concentration (IC50) was above 100 nM.

For the molecule `CC[C@H]1CN(c2ncc(Nc3c(OC)c(=O)c3=O)cc2Cl)CCN1C1CCN(Cc2ccc(Cl)cc2F)CC1` [Compound 106], the IC50 fell in the range of 25 to 100 nM.

`Cc1cc(Nc2c(NCC(F)(F)F)c(=O)c2=O)cnc1N1C[C@@H](C)N(C2CCN(C(=O)C3Cc4ccccc4C3)CC2)C[C@@H]1C` [Compound 166]: the concentration for half-maximal inhibition (IC50) is above 100 nM.

Take `CC[C@H]1CN(c2ncc(NC3=NS(=O)(=O)N=C3NC3CC3)cc2Cl)CCN1C1CCN(Cc2ccc(F)c(F)c2)CC1` [Compound 251]: the half-maximal inhibitory concentration (IC50) was below 25 nM.

For the molecule `CC[C@H]1CN(c2ncc(Nc3c(C(C)C)c(=O)c3=O)cc2Cl)CCN1C1CCN(Cc2ccc(Cl)cc2F)CC1` [Compound 84], the half-maximal inhibitory concentration (IC50) is below 25 nM.

For `C[C@H]1CN(c2nc(Cl)c(N)cc2Cl)CCN1C1CCN(Cc2ccc(Cl)cc2F)CC1` [Compound 228], the 50% inhibitory concentration (IC50) is above 100 nM.

Regarding `CC[C@H]1CN(c2ncc(NC(=O)NC)cc2Cl)CCN1C1CCN(Cc2ccc(Cl)cc2F)CC1` [Compound 182], the IC50 is below 25 nM.

As for `CC[C@H]1CN(c2ncc(NC3=NS(=O)(=O)N=C3NC3CC3)cc2Cl)CCN1C1CCN(Cc2ccc(C#N)nc2)CC1` [Compound 266], the IC50 was above 100 nM.

As for `CC[C@H]1CN(c2ccc(Nc3c(NC4CC4)c(=O)c3=O)cc2Cl)CCN1C1CCN(Cc2ccc(Cl)cc2F)CC1` [Compound 82], the concentration for half-maximal inhibition (IC50) was below 25 nM.

With `CCNC(=O)Nc1cc(Cl)c(N2CCN(C3CCN(Cc4ccc(Cl)cc4)CC3)[C@@H](CC)C2)c(Cl)c1` [Compound 193], the IC50 is above 100 nM.

`C[C@@H]1CN(c2ncc(Nc3c(NCC(F)(F)F)c(=O)c3=O)cc2Cl)[C@@H](C)CN1C1CCN(Cc2ccc(Br)cc2)CC1` [Compound 125]: the IC50 was above 100 nM.

As to `CC[C@H]1CN(c2ncc(NC3=NS(=O)(=O)N=C3NCC(=O)O)cc2Cl)CCN1C1CCN(Cc2ccc(Cl)cc2F)CC1` [Compound 280], the IC50 is above 100 nM.

As to `CC[C@H]1CN(c2ncc(-n3cccn3)cc2Cl)CCN1C1CCN(Cc2ccc(OC(F)(F)F)cc2)CC1` [Compound 210], the IC50 was 25 to 100 nM.

On to `CC[C@H]1CN(c2ncc(NS(=O)(=O)C3CC3)cc2Cl)CCN1C1CCN(Cc2ccc(Cl)cc2F)CC1` [Compound 22], for which the IC50 is below 25 nM.

Consider `CC[C@H]1CN(c2ncc(NS(C)(=O)=O)cc2Cl)CCN1C1CCN(C(=O)c2ccc(Cl)cc2N)CC1` [Compound 24], for which the IC50 was 25 to 100 nM.

For the molecule `CC[C@H]1CN(c2ncc(Nc3c(NC4CC4)c(=O)c3=O)cc2Cl)CCN1C1CCN(C(=O)c2ccc(Cl)cc2)CC1` [Compound 102], the IC50 is below 25 nM.

For `C[C@@H]1CN(C2CCN(Cc3ccc(Cl)cc3F)CC2)[C@@H](C)CN1c1ncc(N)cc1N` [Compound 233], the IC50 is above 100 nM.

Regarding `C[C@@H]1CN(c2ncc(Nc3c(NCC(F)(F)F)c(=O)c3=O)cc2Cl)[C@@H](C)CN1C1CCN(Cc2ccc3c(c2)OCO3)CC1` [Compound 120], the 50% inhibitory concentration (IC50) was above 100 nM.

For `CC[C@H]1CN(c2ncc(NC3=NS(=O)(=O)N=C3N)cc2Cl)CCN1C1CCN(Cc2ccc(OC(F)(F)F)cc2)CC1` [Compound 262], the IC50 was 25 to 100 nM.

As to `C[C@@H]1CN(C2CCN(Cc3ccc(Cl)cc3F)CC2)[C@@H](C)CN1c1ncc(NS(C)(=O)=O)cc1Cl` [Compound 50], the concentration for half-maximal inhibition (IC50) was above 100 nM.

Consider `CC[C@H]1CN(c2ncc(Nc3c(NC4CC4)c(=O)c3=O)cc2Cl)CCN1C1CCN(Cc2ccc(OC(F)F)cc2)CC1` [Compound 74], for which the IC50 is below 25 nM.

As for `CCC(C)(C)C1CCC(N2CCC(N3C[C@H](C)N(c4ncc(Nc5c(NCC(F)(F)F)c(=O)c5=O)cc4Cl)C[C@H]3C)CC2)C1` (stereo partly shown) [Compound 144], the half-maximal inhibitory concentration (IC50) is above 100 nM.

As to `CC[C@H]1CN(c2ncc(NS(C)(=O)=O)cc2Cl)CCN1C1CCN(C(=O)c2ccc(Cl)c(Cl)c2)CC1` [Compound 63], the half-maximal inhibitory concentration (IC50) is above 100 nM.

Turning to `C[C@@H]1CN(c2ncc(Nc3c(NCC(F)(F)F)c(=O)c3=O)cc2Cl)[C@@H](C)CN1C1CCN(Cc2ccccc2Sc2ccc(Cl)cc2)CC1` [Compound 138], the IC50 is above 100 nM.

In the case of `CC[C@H]1CN(c2ncc(NC(=O)C(C)C)cc2Cl)CCN1C1CCN(Cc2ccc(Cl)cc2F)CC1` [Compound 178], the IC50 was below 25 nM.

With `CC[C@H]1CN(c2ncc(NS(C)(=O)=O)cc2Cl)CCN1C1CCN(C(=O)c2ccc(Cl)cc2O)CC1` [Compound 62], the IC50 was above 100 nM.

Turning to `C[C@@H]1CN(c2ncc(Nc3c(NCC(F)(F)F)c(=O)c3=O)cc2Cl)[C@@H](C)CN1C1CCN(C2CCCC(C(F)(F)F)C2)CC1` (stereo partly shown) [Compound 145], the IC50 was above 100 nM.

`C[C@@H]1CN(c2ncc(Nc3c(NCC(F)(F)F)c(=O)c3=O)cc2Cl)[C@@H](C)CN1C1CCN(CCC(C)(C)C)CC1` [Compound 150]: the half-maximal inhibitory concentration (IC50) is above 100 nM.

For `C[C@@H]1CN(c2ncc(Nc3c(NCC(F)(F)F)c(=O)c3=O)cc2Cl)[C@@H](C)CN1C1CCN(Cc2csc3ccccc23)CC1` [Compound 156], the IC50 was above 100 nM.

Take `C[C@H]1CN(c2ncc(N)cc2Cl)CCN1C1CCN(Cc2ccc(Cl)cc2)CC1` [Compound 218]: the IC50 was above 100 nM.

For the molecule `CC[C@H]1CN(c2ncc(NC3=NS(=O)(=O)N=C3N3CCOCC3)cc2Cl)CCN1C1CCN(Cc2ccc(F)c(F)c2)CC1` [Compound 269], the half-maximal inhibitory concentration (IC50) is above 100 nM.

With `CC[C@H]1CN(c2ncc(NS(C)(=O)=O)cc2Cl)CCN1C1CCN(C(=O)c2ccc(OC(F)(F)F)cc2)CC1` [Compound 68], the IC50 is above 100 nM.
